tested on: not listed separately; assay: Test B: Cytotoxicity Assay; type: cell-based; details: human, uninfected MT-4 cells, same protocol as Test A
Method: (§1) MT-4 cells were next mixed with HIV-IIIb at an m.o.i of 0.003 for 1 hour, after which time 35 μL of virus/cell mixture (2000 cells) was immediately added to each well containing 40 μL of diluted compound. The plates were then incubated at 37° C. for 5 days. […] Cell lysis was carried out by incubating at room temperature for 10 min and then chemiluminescence was read.
Test B: Cytotoxicity Assay
Compound cytotoxicity and the corresponding CC50 values was determined using the same protocol as described in the antiviral assay (Test A) except that uninfected cells were used.

Compared with `C#Cc1ccc(-c2ccc(Cl)c3cnn(C)c23)c([C@H](Cc2cc(F)cc(F)c2)NC(=O)Cn2nc(C(F)F)c3c2C(F)(F)[C@@H]2C[C@H]32)n1` [Compound 136D, N—((S)-1-(3-(4-chloro-1-methyl-1H-indazol-7-yl)-6-ethynylpyridin-2-yl)-2-(3,5-difluorophenyl)ethyl)-2-((3b-S,4aR)-3-(difluoromethyl)-5,5-difluoro-3b,4,4a,5-tetrahydro-1H-cyclopropa[3,4]cyclopenta[1,2-c]pyrazol-1-yl)acetamide], `Cn1nc(NS(=O)(=O)C(F)(F)F)c2c(Cl)ccc(-c3ccc(C#CC(C)(C)O)nc3[C@H](Cc3cc(F)cc(F)c3)NC(=O)Cn3nc(C(F)F)c4c3C(F)(F)[C@@H]3C[C@H]43)c21` [Compound 171D, N—((S)-1-(3-(4-chloro-1-methyl-3-(trifluoromethylsulfonamido)-1H-indazol-7-yl)-6-(3-hydroxy-3-methylbut-1-yn-1-yl)pyridin-2-yl)-2-(3,5-difluorophenyl)ethyl)-2-((3b-S,4aR)-3-(difluoromethyl)-5,5-difluoro-3b,4,4a,5-tetrahydro-1H-cyclopropa[3,4]cyclopenta[1,2-c]pyrazol-1-yl)acetamide] is higher in CC50 at 5 days: 7.43 µM for the first, over 42.5 µM for the second.

First: Cn1nc(NS(C)(=O)=O)c2cccc(-c3cnc([C@H](Cc4cc(F)cc(F)c4)NC(=O)Cn4nc(C(F)F)c5c4C(F)(F)[C@@H]4C[C@H]54)c(-c4cccc5c(NS(C)(=O)=O)nn(C)c45)n3)c21 [Compound 146I, N—((S)-1-(3,5-bis(1-methyl-3-(methylsulfonamido)-1H-indazol-7-yl)pyrazin-2-yl)-2-(3,5-difluorophenyl)ethyl)-2-((3b-S,4aR)-3-(difluoromethyl)-5,5-difluoro-3b,4,4a,5-tetrahydro-1H-cyclopropa[3,4]cyclopenta[1,2-c]pyrazol-1-yl)acetamide]
Second: Cn1nc(NS(C)(=O)=O)c2c(Cl)ccc(-c3ccc(C#CC(C)(C)O)nc3[C@H](Cc3cc(F)cc(F)c3)NC(=O)Cn3nc(C(=O)O)c4c3C(F)(F)[C@@H]3C[C@H]43)c21 [Compound 147, (3bS,4aR)-1-(2-(((S)-1-(3-(4-chloro-1-methyl-3-(methylsulfonamido)-1H-indazol-7-yl)-6-(3-hydroxy-3-methylbut-1-yn-1-yl)pyridin-2-yl)-2-(3,5-difluorophenyl)ethyl)amino)-2-oxoethyl)-5,5-difluoro-3b,4,4a,5-tetrahydro-1H-cyclopropa[3,4]cyclopenta[1,2-c]pyrazole-3-carboxylic acid]
The CC50 at 5 days of the first is lower: 33.5 µM for the first, over 53.2 µM for the second.

tested on: HIV-IIIb; assay: Test A: Antiviral Assay in MT4 Cells; type: cell-based, HIV-1; details: Human immunodeficiency virus 1, IIIB, MT4, 120 h, read-out: % inhibition at 0.2 μM
Method: Test A: Antiviral Assay in MT4 Cells
as §1

First: CC(C)(O)C#Cc1ccc(-c2cccc3c(=O)[nH]cnc23)c([C@H](Cc2cc(F)cc(F)c2)NC(=O)Cn2nc(C(F)(F)F)c3c2C(F)(F)[C@@H]2C[C@H]32)n1 [Compound 2, 2-((3bS,4aR)-5,5-difluoro-3-(trifluoromethyl)-3b,4,4a,5-tetrahydro-1H-cyclopropa[3,4]cyclopenta[1,2-c]pyrazol-1-yl)-N—((S)-2-(3,5-difluorophenyl)-1-(6-(3-hydroxy-3-methylbut-1-yn-1-yl)-3-(4-oxo-3,4-dihydroquinazolin-8-yl)pyridin-2-yl)ethyl)acetamide]
Second: CC(C)(O)C#Cc1ccc(-c2cccc3c(=O)[nH]c(=O)[nH]c23)c([C@H](Cc2cc(F)cc(F)c2)NC(=O)Cn2nc(C(F)(F)F)c3c2C(F)(F)[C@@H]2C[C@H]32)n1 [Compound 17, 2-((3bS,4aR)-5,5-difluoro-3-(trifluoromethyl)-3b,4,4a,5-tetrahydro-1H-cyclopropa[3,4]cyclopenta[1,2-c]pyrazol-1-yl)-N—((S)-2-(3,5-difluorophenyl)-1-(3-(2,4-dioxo-1,2,3,4-tetrahydroquinazolin-8-yl)-6-(3-hydroxy-3-methylbut-1-ynyl)pyridin-2-yl)ethyl)acetamide]
The inhibition at 0.2 µM of the first is lower: 79% for the first, 95% for the second.

First: O=C(Cn1nc(C(F)F)c2c1C(F)(F)CCC2(F)F)N[C@@H](Cc1cc(F)cc(F)c1)c1nc(-c2ccc3c(c2)C(=O)NC3)ccc1-c1ccc2c(c1)C(=O)NC2 [Compound 6, (S)—N-(1-(3,6-bis(3-oxoisoindolin-5-yl)pyridin-2-yl)-2-(3,5-difluorophenyl)ethyl)-2-(3-(difluoromethyl)-4,4,7,7-tetrafluoro-4,5,6,7-tetrahydro-1H-indazol-1-yl)acetamide]
Second: O=C(Cn1nc(C(F)F)c2c1C(F)(F)CCC2(F)F)N[C@@H](Cc1cc(F)cc(F)c1)c1ncc(-c2ccc3c(c2)C(=O)NC3)cc1-c1ccc2c(c1)C(=O)NC2 [Compound 10B, (S)—N-(1-(3,5-bis(3-oxoisoindolin-5-yl)pyridin-2-yl)-2-(3,5-difluorophenyl)ethyl)-2-(3-(difluoromethyl)-4,4,7,7-tetrafluoro-4,5,6,7-tetrahydro-1H-indazol-1-yl)acetamide]
The inhibition at 0.2 µM of the first is higher: 5% for the first, 1% for the second.

Going from `O=C(Cn1nc(C(F)F)c2c1C(F)(F)CCC2(F)F)N[C@@H](Cc1cc(F)cc(F)c1)c1nc(-c2cnc3[nH]ccc3c2)ccc1-c1cnc2[nH]ccc2c1` [Compound 7, (S)—N-(1-(3,6-bis(1H-pyrrolo[2,3-b]pyridin-5-yl)pyridin-2-yl)-2-(3,5-difluorophenyl)ethyl)-2-(3-(difluoromethyl)-4,4,7,7-tetrafluoro-4,5,6,7-tetrahydro-1H-indazol-1-yl)acetamide] to `Cn1nc(NS(C)(=O)=O)c2c(Cl)ccc(-c3ccc(C#CC(C)(C)O)nc3[C@H](Cc3cc(F)cc(F)c3)NC(=O)Cn3nc(C(F)F)c4c3C(F)(F)[C@@H]3C[C@H]43)c21` [Compound 19G, (S)—N-(1-(3-(4 chloro-1-methyl-3-(methylsulfonamido)-1H-indazol-7-yl)-6-(3-hydroxy-3-methylbut-1-ynyl)pyridin-2-yl)-2-(3,5-difluorophenyl)ethyl)-2-((3bS,4aR)-5,5-difluoro-3-(difluoromethyl)-3b,4,4a,5-tetrahydro-1H-cyclopropa[3,4]cyclopenta[1,2-c]pyrazol-1-yl)acetamide], the inhibition at 0.2 µM rises from 8% to 97%.

First: Cn1nc(NS(C)(=O)=O)c2c(Cl)ccc(-c3ccc(C#CC(C)(C)N)nc3[C@H](Cc3cc(F)cc(F)c3)NC(=O)Cn3nc(C(F)F)c4c3C(F)(F)[C@@H]3C[C@H]43)c21 [Compound 127, N—((S)-1-(6-(3-amino-3-methylbut-1-yn-1-yl)-3-(4-chloro-1-methyl-3-(methylsulfonamido)-1H-indazol-7-yl)pyridin-2-yl)-2-(3,5-difluorophenyl)ethyl)-2-((3bS,4aR)-3-(difluoromethyl)-5,5-difluoro-3b,4,4a,5-tetrahydro-1H-cyclopropa[3,4]cyclopenta[1,2-c]pyrazol-1-yl)acetamide]
Second: CC(C)(O)C#Cc1ccc(-c2cccc3c2CNC3=O)c([C@H](Cc2cc(F)cc(F)c2)NC(=O)Cn2nc(C(F)(F)F)c3c2C(F)(F)[C@@H]2C[C@H]32)n1 [Compound 14E, 2-((3bS,4aR)-5,5-difluoro-3-(trifluoromethyl)-3b,4,4a,5-tetrahydro-1H-cyclopropa[3,4]cyclopenta[1,2-c]pyrazol-1-yl)-N—((S)-2-(3,5-difluorophenyl)-1-(6-(3-hydroxy-3-methylbut-1-yn-1-yl)-3-(1-oxoisoindolin-4-yl)pyridin-2-yl)ethyl)acetamide]
The inhibition at 0.2 µM of the first is higher: 92% for the first, 87% for the second.

same assay, conditions: Human immunodeficiency virus 1, IIIB, MT4, 120 h, read-out: % inhibition at 2 μM

Compared with `Cn1nc(NS(C)(=O)=O)c2c(Cl)ccc(-c3ccc(C#CC(C)(C)O)nc3[C@H](Cc3cc(F)cc(F)c3)NC(=O)Cn3nc(C(F)F)c4c3C(F)(F)[C@@H]3C[C@H]43)c21` [Compound 19G, (S)—N-(1-(3-(4 chloro-1-methyl-3-(methylsulfonamido)-1H-indazol-7-yl)-6-(3-hydroxy-3-methylbut-1-ynyl)pyridin-2-yl)-2-(3,5-difluorophenyl)ethyl)-2-((3bS,4aR)-5,5-difluoro-3-(difluoromethyl)-3b,4,4a,5-tetrahydro-1H-cyclopropa[3,4]cyclopenta[1,2-c]pyrazol-1-yl)acetamide], `Cn1nc(NS(C)(=O)=O)c2c(Cl)ccc(-c3ccc(C#CC(C)(C)N)nc3[C@H](Cc3cc(F)cc(F)c3)NC(=O)Cn3nc(C(F)F)c4c3C(F)(F)[C@@H]3C[C@H]43)c21` [Compound 127, N—((S)-1-(6-(3-amino-3-methylbut-1-yn-1-yl)-3-(4-chloro-1-methyl-3-(methylsulfonamido)-1H-indazol-7-yl)pyridin-2-yl)-2-(3,5-difluorophenyl)ethyl)-2-((3bS,4aR)-3-(difluoromethyl)-5,5-difluoro-3b,4,4a,5-tetrahydro-1H-cyclopropa[3,4]cyclopenta[1,2-c]pyrazol-1-yl)acetamide] is lower in inhibition at 2 µM: 93% for the first, 92% for the second.

— US20140303164A1, “THERAPEUTIC COMPOUNDS” (Gilead Sciences, Inc., priority 2013, published 2014)
